{"source": "paper PMC7782499", "about": "“Progerinin, an optimized progerin-lamin A binding inhibitor, ameliorates premature senescence phenotypes of Hutchinson-Gilford progeria syndrome” (Communications Biology, 2021)", "key": {"[1]": {"experiment": "Pharmacokinetic analysis of SLC-D011 dissolved in monoolein-based solution, oral", "assay_type": "in vivo", "design": "unit not given here", "description": "Fig. S9. In vitro ADME results of SLC-D011 via oral administration. A. Formulation for complete dissolution. Due to its extremely hydrophobic property, SLC-D011 was not dissolved in water solution (left). To overcome this problem, several edible solutions were tested and monoolein- based solution was selected as a dissolving solution (right). B. SLC-D011 was very stable in solution. For complete dissolution, heating at 80℃ and sonication step were required. However, SLC -D011 was not broken despite of heating […]\nand sonication. […] C and D.\nPharmacokinetic analysis of SLC -D011dissolved in monoolein- based solution."}, "Lmna G609G/G609G mouse": {"tested_on": "Lmna G609G/G609G mouse", "experiment": "Body weight of Lmna G609G/G609G mice (ratio, week 4 = 1)", "assay_type": "in vivo", "conditions": "for body weight: IP injection", "description": "Fig. 3 In vivo favorable effect of SLC-D011. A Gross morphology of Lmna^G609G/G609G mice (10 weeks old) was ameliorated after injection with SLC-D011. At the same age, the experimental group (D011) of mice were larger than vehicle-injected control (Con) subjects regardless of gender. B, C SLC-D011 increases body weight B and extends life span C of Lmna^G609G/G609G progeria model mouse (Con: n = 8; SLC-D011: n = 8). Compared with 14.8 weeks of average (ave) life span with maximum (max) life span of 15.5 weeks, 20 mg/kg of intraperitoneal (i.p) injection (twice a week) of SLC-D011 could extend the life span upto 19 weeks (max = 21 weeks). Lmna^G609G/G609G mice were injected with SLC-D011 from age of 5-week old, *p < 0.05. D Gross morphology of SLC-D011 injected Lmna^G609G/+ mouse. […] E SLC-D011 increases body weights of Lmna^G609G/+ mice (Con: n = 10; SLC-D011: n = 11), *p < 0.05. F Favorable effect of SLC-D011 on life span of Lmna^G609G/+ mice. Compared with vehicle-injected control group (ave = 46.7 weeks and max = 48 weeks), SLC-D011 treatment obviously extended the average life span to 63 weeks (max = 64 weeks). The injection was started from 32 weeks old, **p < 0.001. “Con” means vehicle (a solvent composed of DMSO and PBS)-injected mouse group. TEXT PRINTED IN THE PICTURE: (C) D011: Kaplan-Meier survival curve in Lmna^G609G/G609G: Ave=19; Kaplan-Meier survival curve in Lmna^G609G/G609G: Max=21 | (F) D011: Kaplan-Meier survival curve in Lmna^G609G/+: Ave=63; Kaplan-Meier survival curve in Lmna^G609G/+: Max=64 DOUBTS OF THE COPYIST ABOUT THIS PICTURE: Panels C and F: the Ave/Max labels are not printed with a group name. They are assigned to D011 (solid curve) or Con (dashed curve) only by their position beside the curves. / Panel C Ave=14.8, Max=15.5 and panel F Ave=46.7, Max=48 stand beside the dashed Con curve. They are left out because Con is the control group, not a substance. / No unit is printed with the Ave/Max values. Only the axis reads Age (weeks).\nFig. 4 Oral administration of SLC-D011 suppresses premature aging features. A Gross morphology of SLC-D011-treated (D011) mice at 8 weeks old. Body size of treated mouse was apparently larger than that of the untreated control (Con) mouse. B Oral administration of SLC-D011 increases body weights of Lmna^G609G/G609G mice. Compared with untreated control group, body weight of treated mouse was increased by ~35%, *p < 0.05. C Oral administration of SLC-D011 extends the life span of Lmna^G609G/G609G mouse. SLC-D011 in monoolein-based solution was treated by oral gavage (50 mg/kg, daily) from 5 weeks old. […] E Grip test of Lmna^G609G/+ mice at 41-week-old was performed after administration of SLC-D011 for 6 weeks. The test was repeated 10 times for each mouse (n > 4), **p < 0.001. Data are presented as mean ± SD. F Electrocardiographic analysis of Lmna^G609G/+ mice (untreated: n = 4; SLC-D011: n = 4) and Lmna^+/+ mice (n = 3) after treatment with SLC-D011 for 6 weeks (unpaired t test). Heart rate is shown as beats per minute (bpm). G Dental abnormalities in Lmna^G609G/+ mice (untreated: n = 4; SLC-D011: n = 5) and Lmna^+/+ mice (n = 4). […] Lower incisors of Lmna^G609G transgenic mice grow toward the palate because of malocclusion. Oral administration of SLC-D011 for 6 weeks alleviates dental abnormalities. H Anti-aging effects of single treatment of SLC-D011 or lonafarnib were measured in HGPS patients-derived cells (AG11513, AG03199, AG11498, and AG03198, Coriell Cell Repositories). Single treatment of SLC-D011, compared to lonafarnib, reduced the expression of progerin but induced the expression of H3K9me3 and cyclin B1 in HGPS cells more effectively. HGPS patients-derived cells were treated with SLC-D011 (500 nM) or lonafarnib (500 nM) for 3 days. I Scheme of interaction between lamin A and progerin. SLC-D011 interrupts the interaction between lamin A and progerin through direct binding to the C-terminal region of progerin. […]"}}, "note": "Values joined by “and” are separate entries in the source; they are usually repeats but may differ in a detail not shown here. Identical values can stand only once.", "data": [{"compound": "CC1(C)Oc2cc3oc(=O)ccc3cc2C[C@@H]1OC/C=C/c1ccccc1", "note": "[SLC-D011]", "values": [{"measurement": "Plasma concentration, Mean", "setting": "[1]; oral 10mg/kg (n=3), 0.25 hr", "value": 41}, {"measurement": "Plasma concentration, Mean", "setting": "[1]; oral 10mg/kg (n=3), 0.5 hr", "value": 71}, {"measurement": "Plasma concentration, Mean", "setting": "[1]; oral 10mg/kg (n=3), 1 hr", "value": 124.8}, {"measurement": "Plasma concentration, Mean", "setting": "[1]; oral 10mg/kg (n=3), 2 hr", "value": 441.9}, {"measurement": "Plasma concentration, Mean", "setting": "[1]; oral 10mg/kg (n=3), 4 hr", "value": 318.8}, {"measurement": "Plasma concentration, Mean", "setting": "[1]; oral 10mg/kg (n=3), 8 hr", "value": 160.1}, {"measurement": "Plasma concentration, Mean", "setting": "[1]; oral 10mg/kg (n=3), 24 hr", "value": 7.7}, {"measurement": "Plasma concentration, Mean", "setting": "[1]; oral 20mg/kg (n=3), 0.25 hr", "value": 67.3}, {"measurement": "Plasma concentration, Mean", "setting": "[1]; oral 20mg/kg (n=3), 0.5 hr", "value": 93.1}, {"measurement": "Plasma concentration, Mean", "setting": "[1]; oral 20mg/kg (n=3), 1 hr", "value": 537.5}, {"measurement": "Plasma concentration, Mean", "setting": "[1]; oral 20mg/kg (n=3), 2 hr", "value": 581.7}, {"measurement": "Plasma concentration, Mean", "setting": "[1]; oral 20mg/kg (n=3), 4 hr", "value": 899.9}, {"measurement": "Plasma concentration, Mean", "setting": "[1]; oral 20mg/kg (n=3), 8 hr", "value": 574}, {"measurement": "Plasma concentration, Mean", "setting": "[1]; oral 20mg/kg (n=3), 24 hr", "value": 9.7}, {"measurement": "body weight", "setting": "Lmna G609G/G609G mouse; after week 5", "value": "1.167 and 1.25 and 1.182 and 1"}, {"measurement": "body weight", "setting": "Lmna G609G/G609G mouse; after week 7", "value": "1.333 and 1.417 and 1.273 and 1.077"}, {"measurement": "body weight", "setting": "Lmna G609G/G609G mouse; after week 8", "value": "1.5 and 1.25 and 1.273 and 1 and 1.462"}, {"measurement": "body weight", "setting": "Lmna G609G/G609G mouse; after week 9", "value": "1.417 and 1.25 and 1.273 and 1 and 1.385"}, {"measurement": "body weight", "setting": "Lmna G609G/G609G mouse; after week 10", "value": "1.333 and 1.167 and 1.182 and 1"}, {"measurement": "body weight", "setting": "Lmna G609G/G609G mouse; after week 13", "value": "1.167 and 0.8333 and 1.091 and 0.8462"}, {"measurement": "body weight", "setting": "Lmna G609G/G609G mouse; after week 15", "value": "1 and 0.6667 and 0.9231"}, {"measurement": "body weight", "setting": "Lmna G609G/G609G mouse; after week 16", "value": "1 and 0.8182 and 0.8462"}, {"measurement": "body weight", "setting": "Lmna G609G/G609G mouse; after week 17", "value": "0.8333 and 0.8182 and 0.7692"}, {"measurement": "body weight", "setting": "Lmna G609G/G609G mouse; column after week 4", "value": "1.083 and 1"}, {"measurement": "body weight", "setting": "Lmna G609G/G609G mouse; column after week 6", "value": "1.25 and 1.333 and 1.273 and 1.077"}, {"measurement": "body weight", "setting": "Lmna G609G/G609G mouse; column after week 11", "value": "1.333 and 1.083 and 1.182 and 1"}, {"measurement": "body weight", "setting": "Lmna G609G/G609G mouse; column after week 12", "value": "1.25 and 0.9167 and 1.182 and 0.9231"}, {"measurement": "body weight", "setting": "Lmna G609G/G609G mouse; column after week 14", "value": "1.083 and 0.75 and 1.091 and 0.9231"}, {"measurement": "body weight", "setting": "Lmna G609G/G609G mouse; column after week 18", "value": "0.8333 and 0.7692"}, {"measurement": "body weight", "setting": "Lmna G609G/G609G mouse; column after week 19", "value": 0.75}, {"measurement": "body weight", "setting": "Lmna G609G/G609G mouse; week 5", "value": "1.167 and 1.091 and 1"}, {"measurement": "body weight", "setting": "Lmna G609G/G609G mouse; week 6", "value": "1.167 and 1.333 and 1.273 and 1"}, {"measurement": "body weight", "setting": "Lmna G609G/G609G mouse; week 7", "value": "1.333 and 1.417 and 1.273 and 1"}, {"measurement": "body weight", "setting": "Lmna G609G/G609G mouse; week 8", "value": "1.417 and 1.273 and 1.077 and 1.385"}, {"measurement": "body weight", "setting": "Lmna G609G/G609G mouse; week 10", "value": "1.417 and 1.167 and 1.273 and 1 and 1.385"}, {"measurement": "body weight", "setting": "Lmna G609G/G609G mouse; week 11", "value": "1.333 and 1.083 and 1.182 and 1.077"}, {"measurement": "body weight", "setting": "Lmna G609G/G609G mouse; week 12", "value": "1.25 and 1 and 1.182 and 0.9231"}, {"measurement": "body weight", "setting": "Lmna G609G/G609G mouse; week 13", "value": "1.25 and 0.8333 and 1.182 and 0.9231"}, {"measurement": "body weight", "setting": "Lmna G609G/G609G mouse; week 15", "value": "1.083 and 0.75 and 1.091 and 0.8462"}, {"measurement": "body weight", "setting": "Lmna G609G/G609G mouse; week 16", "value": "1 and 0.8462"}, {"measurement": "body weight", "setting": "Lmna G609G/G609G mouse; week 17", "value": "0.8333 and 0.8182 and 0.8462"}, {"measurement": "body weight", "setting": "Lmna G609G/G609G mouse; week 18", "value": "0.8333 and 0.7692"}, {"measurement": "body weight", "setting": "Lmna G609G/G609G mouse; week 19", "value": 0.8333}, {"measurement": "Increase of body weight compared with untreated control", "setting": "Lmna G609G/G609G mouse; oral administration", "value": "~ 35%"}]}]}
